Data on one compound can be found in patent publication US11612586B2, “Indole regulation of antigen presenting cells” (THE TEXAS A&M UNIVERSITY SYSTEM, priority 2016, dated 2023).

What all share (type): cell-based, mouse
Assay [1] concerns TNF. Briefly: TNF production in splenic CD11c+ DCs ex vivo. Particulars: indole overnight. An excerpt:
To evaluate the possible role of AhR in mediating the anti-inflammatory effects of indole on DCs, AhR-deficient mice were acquired and analyzed splenic and bone marrow-derived DCs. Splenocytes from AhR-deficient and WT mice were first treated overnight with indole, followed by stimulation with heat-killed S. typhimurium.

Assay [2] has as its system Erk. The assay can be described thus: phospho-Erk signaling in BMDMs. As for the experimental part: The PI3K/Akt and MAPK/Erk signaling pathways regulate many cellular processes including survival, apoptosis, growth, and cytokine production. […] Specifically, BMDMs were treated with indole (1 mM) or DMF control for 18 hours, then stimulated with LPS (10 ug/ml) or CpG (5 uM) for 30 minutes. Cells were stained for phospho-Akt or phospho-Erk and analyzed by flow cytometry.
(§1) The inventors performed a series of assays where bone marrow derived macrophages (BMDMs), bone marrow derived dendritic cells (BMDCs), and splenic dendritic cells (splenic DCs), were exposed to a series of TDMMs, including indole, indole-3-acetate (I3AT), 5-hydroxyindole (5HI), and indole-3-pyruvate (I3P), as well as indole-3-carbinol (I3C; a plant derived compound) to be used for a positive control (1 mM for 24 hours). The BMDMs and BMDCs were stimulated with LPS for 4 hours and assayed at day 7 for expression of various pro-inflammatory cytokines. In a similar assay, the BMDMs and BMDCs were stimulated with LPS or CpG, respectively, for 15 minutes and assayed for pAKT and pERK signaling, which is a reflection of pro-inflammatory response.

Assay [3] concerns IL-12. Briefly: IL-12 production in BMDMs, intracellular staining, flow cytometry. On the procedure: BMDMs were treated with indole or DMF control for 18 hours or 4 hours, followed by stimulation with LPS (2 ug/ml or 250 ng/ml) for 4 hours in the presence of Golgiplug. BMDMs were then stained for intracellular TNF or IL-12 and analyzed by flow cytometry.
First, pro-inflammatory cytokine production in macrophages was investigated. […] In the DC study described herein, DCs were typically conditioned with indole during their development from bone marrow precursors in order to mimic the proximity of DC progenitor cells to indole in the intestinal microenvironment during development. […] BMDMs were treated for 18 hours with indole, followed by a 4 hour stimulation with either a very high (2 ug/ml) or low (250 ng/ml) dose of LPS.
Additionally, to determine if recently arrived macrophage precursors might also be affected, BMDMs were next treated for just 4 hours with indole, followed by a […] stimulation with the same LPS concentrations.
To address the question of indole and AhR dependence in macrophages, experiments using BMDMs derived from AhR-knockout mice were run alongside wild-type littermate controls. Specifically, flow cytometric analysis of BMDMs was performed on WT or AhR-KO mice and treated with indole or DMF control for 18 hours. BMDMs were stimulated for 4 hours with LPS (50 ng/ml) in the presence of Golgiplug, then stained for intracellular TNF (left panels) and IL-12 (right panels).
as §1
Bone marrow was harvested as described above and cultured at a density of 1×10^6 cells in 10 ml complete media supplemented with 10 ng/ml M-CSF (Peprotech) in 100 mm×15 mm petri dishes. Media with cytokine was replenished on day 3. Adherent and semi-adherent cells were recovered on day 7, plated, and treated with indole prior to downstream experiments.
On the technique in general: In flow cytometry, cells or beads pass a laser one at a time.

Assay [4] deals with Stat3. Briefly: IL-6 induced pSTAT3 signaling in splenic DCs. The following applies: splenic DCs, 1 mM TDMM 24 hours, IL-6 (10 ng/ml) 30 minutes. As for the experimental part: Briefly, flow cytometric analysis was performed on splenic DCs conditioned with the indicated TDMMs for 24 hours and then subsequently stimulated with 10 ng/ml IL-6 for 30 minutes.
In assay [5] the test system is CCR9. The assay can be described thus: CCR9 surface expression on BMDCs. Particulars: BMDCs cultured from day 3 with indole (1 mM) or retinoic acid (1 μM), day 7. On the procedure:
FIGS. 12A and 12B graphically illustrate that indole induces CCR9 and B220 on DCs. BMDCs were cultured in the presence of indole (1 mM), retinoic acid (1 μM), or DMF solvent control from day 3. On day 7, DCs were surface stained for expression of CCR9 and B220 and analyzed by flow cytometry. […] Mean of three independent experiments. * indicates p<0.05 for one-way ANOVA followed by Dunnett's post-test.
Dendritic cell subsets bear numerous surface antigens that regulate their migration and localization. Because indole is produced in the gut and appears to induce anti-inflammatory properties in DCs (as described above), it was hypothesized that indole might affect migration and retention in mucosal tissues. Thus, expression of the gut homing marker, chemokine receptor CCR9 was investigated. […] Retinoic acid (RA) was included as a positive control. RA is present in murine plasma at approximately […] and is predicted to exist at higher concentrations in tissue microenvironments in vivo. Thus, 1 uM was used as a conservative estimate of relevant physiological concentration. Indole's effect was even more profound than that of retinoic acid, a known inducer of mucosal homing markers on T cells (see, e.g., Iwata M, et al. (2004) Retinoic Acid Imprints Gut-Homing Specificity on T Cells. Immunity 21(4):527-538). […]

The structures appear in SMILES notation.

Consider `c1ccc2[nH]ccc2c1` [Indole, indole], for which the “inhibition of TNF production” value is ≥ 2 fold in assay [1] (splenic CD11c+ DCs, LPS or heat-killed S. typhimurium); 2 fold in assay [1] (splenic DCs from AhR−/− mice, heat-killed S. typhimurium); 2 fold in assay [1] (splenic DCs from WT mice, heat-killed S. typhimurium). The pERK result in assay [2] (1 mM TDMM 24 hours, LPS 1 ug/ml 15 minutes) is “↓”. The “dampening of pErk signaling” value in assay [2] (indole 1 mM 18 hours, LPS (10 ug/ml) or CpG (5 uM) 30 minutes) is given as “approximately 50%”. For the same compound, the “reduction of IL-12 production” value in assay [3] (BMDMs from WT or AhR-KO mice, 1 mM indole 18 hours, LPS 50 ng/ml 4 hours) is on record as “approximately 2 fold”. Further, in assay [3] (BMDMs, 1 mM TDMM 24 hours, LPS 1 ug/ml 4 hours), the IL-12 entry is “↓↓↓”. The “inhibition of IL-12 production” value in assay [3] (BMDMs, 1 mM indole 18 hours, LPS 2 ug/ml or 250 ng/ml 4 hours) is given as ~2 fold. For the same compound, the “IL-6 induced pSTAT3 expression, CD4+ DCs” value in assay [4] was “↓↓”. Further, the “IL-6 induced pSTAT3 expression, CD4− DCs” value in assay [4] is recorded as “↓↓”. Moreover, in assay [5], the “surface expression of CCR9 on conditioned DCs” value was determined as 34%.
